Results taken from ChEMBL document CHEMBL4219147, “Design, synthesis, and structure-activity relationships of novel 4,7,12,12a-tetrahydro-5H-thieno[3',2':3,4]pyrido[1,2-b]isoquinoline and 5,8,12,12a-tetrahydro-6H-thieno[2',3':4,5]pyrido[2,1-a]isoquinoline derivatives as cellular activators of adenosine 5'-monophosphate-activated protein kinase …” (Bioorg Med Chem, 2018).
Active and inactive are the calls of the source. The rule behind the calls is not given here.

Columns and labels:
L6 [1] = assay: Activation of AMPK in differentiated Sprague-Dawley rat L6 myotube cells assessed as glucose consumption at 5 uM after 12 hrs by colorimetric assay (reference value: 100 +/- 1.8%); assay type: cell-based
L6 [2] = assay: Activation of AMPK in differentiated Sprague-Dawley rat L6 myotube cells assessed as glucose consumption at 10 uM after 12 hrs by colorimetric assay (reference value: 100 +/- 1.8%); assay type: cell-based
L6 [3] = assay: Activation of AMPK in differentiated Sprague-Dawley rat L6 myotube cells assessed as glucose consumption at 20 uM after 12 hrs by colorimetric assay (reference value: 100 +/- 1.8%); assay type: cell-based
L6 [4] = assay: Activation of AMPK in differentiated Sprague-Dawley rat L6 myotube cells assessed as increase in glucose consumption at 5 to 20 uM after 12 hrs by colorimetric assay relative to control; assay type: cell-based
[5] = Cytotoxicity against Sprague-Dawley rat L6 cells assessed as cell viability at 5 uM after 12 hrs by SRB assay (reference value: 100 +/- 1.8%); assay type: cell-based; settings: read-out: Activity
[6] = Cytotoxicity against Sprague-Dawley rat L6 cells assessed as cell viability at 10 uM after 12 hrs by SRB assay (reference value: 100 +/- 1.8%); assay type: cell-based; settings: read-out: Activity
[7] = Cytotoxicity against Sprague-Dawley rat L6 cells assessed as cell viability at 20 uM after 12 hrs by SRB assay (reference value: 100 +/- 1.8%); assay type: cell-based; settings: read-out: Activity
Rattus norvegicus [8] = species: Rattus norvegicus; assay: Activation of AMPK in Sprague-Dawley rat primary hepatocytes assessed as inhibition of gluconeogenesis by measuring glucose production at 5 uM after 6 hrs by colorimetric assay (reference value: 100 +/- 3.5%); set-up: scale not given: the % may be the effect or the level left
Rattus norvegicus [9] = species: Rattus norvegicus; assay: Activation of AMPK in Sprague-Dawley rat primary hepatocytes assessed as inhibition of gluconeogenesis by measuring glucose production at 10 uM after 6 hrs by colorimetric assay (reference value: 100 +/- 3.5%); set-up: scale not given: the % may be the effect or the level left
Rattus norvegicus [10] = species: Rattus norvegicus; assay: Activation of AMPK in Sprague-Dawley rat primary hepatocytes assessed as inhibition of gluconeogenesis by measuring glucose production at 20 uM after 6 hrs by colorimetric assay (reference value: 100 +/- 3.5%); set-up: scale not given: the % may be the effect or the level left
Rattus norvegicus [11] = species: Rattus norvegicus; assay: Activation of AMPK in Sprague-Dawley rat primary hepatocytes assessed as inhibition of gluconeogenesis by measuring glucose production after 6 hrs by colorimetric assay
L6 [12] = assay: Upregulation of AMPKalpha phosphorylation at Thr172 residues in Sprague-Dawley rat L6 myotube cells at 5 to 20 uM after 1 hr by Western blot analysis; assay type: cell-based
L6 [13] = assay: Activation of AMPK in Sprague-Dawley rat L6 myotube cells assessed as increase in acetyl-CoA carboxylase phosphorylation at Ser79 residues at 5 to 20 uM after 1 hr by Western blot analysis; assay type: cell-based
L6 [14] = assay: Inhibition of mitochondrial respiratory complex 1 in differentiated Sprague-Dawley rat L6 myotube cells assessed as mitochondrial membrane potential at 5 uM after 40 to 60 mins by JC-1 staining based fluorescence assay (reference value: 100 +/- 1.6%); assay type: cell-based; set-up: scale not given: the % may be the effect or the level left
L6 [15] = assay: Inhibition of mitochondrial respiratory complex 1 in differentiated Sprague-Dawley rat L6 myotube cells assessed as mitochondrial membrane potential at 10 uM after 40 to 60 mins by JC-1 staining based fluorescence assay (reference value: 100 +/- 1.6%); assay type: cell-based; set-up: scale not given: the % may be the effect or the level left
L6 [16] = assay: Inhibition of mitochondrial respiratory complex 1 in differentiated Sprague-Dawley rat L6 myotube cells assessed as mitochondrial membrane potential at 20 uM after 40 to 60 mins by JC-1 staining based fluorescence assay (reference value: 100 +/- 1.6%); assay type: cell-based; set-up: scale not given: the % may be the effect or the level left
L6 [17] = assay: Activation of AMPK in differentiated Sprague-Dawley rat L6 myotube cells assessed as increase in glucose consumption at 5 to 20 uM after 12 hrs by colorimetric assay relative to berberine; assay type: cell-based

| SMILES | Activity (L6 [1]) [%] | Activity (L6 [2]) [%] | Activity (L6 [3]) [%] | fold change (FC) (L6 [4]) | viability at 12 h, 5 µM [5] [%] | viability at 12 h, 10 µM [6] [%] | viability at 12 h, 20 µM [7] [%] | Activity (Rattus norvegicus [8]) [%] | Activity (Rattus norvegicus [9]) [%] | Activity (Rattus norvegicus [10]) [%] | inhibition (Rattus norvegicus [11]) | Activity (L6 [12]) | Activity (L6 [13]) | Activity (L6 [14]) [%] | Activity (L6 [15]) [%] | Activity (L6 [16]) [%] | fold change (FC) (L6 [17]) |
| --- | --- | --- | --- | --- | --- | --- | --- | --- | --- | --- | --- | --- | --- | --- | --- | --- | --- |
| COc1ccc(OC)c2c1CC1c3cc(Cc4ccncc4)sc3CCN1C2 (stereo not drawn) | 111 | 130 | 153 | 1.3 to 1.5 | 105 | 110 | 104 | – | – | – | – | – | – | – | – | – | – |
| COc1ccc(OC)c2c1CC1c3cc(Cc4ccc(C(F)(F)F)cc4)sc3CCN1C2 (stereo not drawn) | 156 | 189 | 229 | 1.9 | 102 | 101 | 100 | – | – | – | – | – | – | – | – | – | – |
| COc1ccc(OC)c2c1CC1c3cc(Cc4cccc(C)c4)sc3CCN1C2 (stereo not drawn) | 237 | 266 | 251 | – | 99.6 | 99 | 101 | 82.7 | 65.6 | 47.5 | Dose-dependent effect | Active | Active | 84.5 | 77.8 | 67.6 | – |
| COc1cccc(Cc2cc3c(s2)CCN2Cc4c(OC)ccc(OC)c4CC32)c1 (stereo not drawn) | 245 | 242 | 243 | 2.1 to 2.7 | 100 | 94.9 | 100 | 73.2 | 58.8 | 38.1 | Dose-dependent effect | Active | Active | 76.3 | 72.8 | 59.2 | 2.3 |
| COc1ccc(OC)c2c1CC1c3cc(Cc4ccccn4)sc3CCN1C2 (stereo not drawn) | 140 | 148 | 172 | 1.3 to 1.5 | 104 | 103 | 103 | – | – | – | – | – | – | – | – | – | – |
| N#CC(C#N)=NNc1cccc(Cl)c1 | – | – | – | – | – | – | – | – | – | – | – | – | – | – | 42.9 | – | – |
| COc1ccc(OC)c2c1CC1c3cc(Cc4ccc(N5CCCCC5)cc4)sc3CCN1C2 (stereo not drawn) | 214 | 252 | 270 | 2.5 | 103 | 101 | 102 | 51.6 | 46.7 | 43 | Dose-dependent effect | Active | Active | 82.8 | 71.7 | 58.5 | – |
| COc1ccc(OC)c2c1CC1c3cc(Cc4ccc(S(C)(=O)=O)cc4)sc3CCN1C2 (stereo not drawn) | 128 | 106 | 97.9 | 1.1 | 101 | 102 | 101 | – | – | – | – | – | – | – | – | – | – |
| COc1ccc(OC)c2c1CC1c3cc(Cc4nccs4)sc3CCN1C2 (stereo not drawn) | 134 | 152 | 167 | 1.3 to 1.5 | 104 | 103 | 103 | – | – | – | – | – | – | – | – | – | – |
| COc1ccc(OC)c2c1CC1c3cc(Cc4ccc(N5CCOCC5)cc4)sc3CCN1C2 (stereo not drawn) | 97.1 | 137 | 157 | 1.4 | 97.7 | 99.2 | 98.9 | – | – | – | – | – | – | – | – | – | – |
| COc1ccc(OC)c2c1CC1c3cc(Cc4ccc(N(C)C)cc4)sc3CCN1C2 (stereo not drawn) | 200 | 201 | 230 | 2 | 110 | 108 | 107 | – | – | – | – | – | – | – | – | – | – |
| COc1ccc(OC)c2c1CC1c3cc(Cc4ccc(Br)cc4)sc3CCN1C2 (stereo not drawn) | 169 | 187 | 242 | 1.9 | 101 | 105 | 101 | – | – | – | – | – | – | – | – | – | – |
| COc1ccc(OC)c2c1CC1c3cc(Cc4cc(OC)c(OC)c(OC)c4)sc3CCN1C2 (stereo not drawn) | 174 | 188 | 184 | 1.9 | 95.3 | 104 | 104 | – | – | – | – | – | – | – | – | – | – |
| COc1ccc(OC)c2c1CC1c3cc(Cc4ccc(N5CCN(C)CC5)cc4)sc3CCN1C2 (stereo not drawn) | 168 | 169 | 181 | 1.7 | 106 | 104 | 107 | – | – | – | – | – | – | – | – | – | – |
| COc1ccc(OC)c2c1CC1c3cc(Cc4ccc(NC(C)=O)cc4)sc3CCN1C2 (stereo not drawn) | 121 | 130 | 142 | 1.3 | 96.2 | 97.2 | 94.9 | – | – | – | – | – | – | – | – | – | – |
| COc1ccc(OC)c2c1CC1c3cc(Cc4ccc5c(c4)CCO5)sc3CCN1C2 (stereo not drawn) | 200 | 212 | 212 | 2.1 to 2.7 | 101 | 103 | 103 | – | – | – | – | – | – | – | – | – | – |
